# Reference: PubChem BioAssay AID1259411 (Chemical Carcinogenesis Research Information System (CCRIS), 2018)
# The source made the active and inactive calls. How the calls were made is not given here.
# Test system: rodent carcinogenicity bioassays, tumor incidence
# Experiment: CCRIS carcinogenicity studies
# Method in brief: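 NCI-built, expert-reviewed records of carcinogenicity and related test outcomes (mutagenicity, tumor promotion/inhibition) compiled from published and report sources, historical span 1985-2011, not updated.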
structure (smiles),measurement,setting,value
[Cl][Cd][Cl],carcinogen call,"Species: HAMSTER, Strain/Sex: SYRIAN/FEMALE, Route: INHALATION, Dose: 0, 30 UG/M3 19 HR/D 5 D/WK FOR 65 WK FOR A TOTAL CADMIUM DOSE OF 0, 180 MG/M3 (STUDY DURATION: 76 WK), Dose: 0, 30 UG/M3 19 HR/D 5 D/WK FOR 65 WK FOR A TOTAL CADMIUM DOSE OF 0, 180 MG/M3 (STUDY DURATION: 76 WK)",inactive; negative
same,carcinogen call,"Species: HAMSTER, Strain/Sex: SYRIAN/MALE, Route: INHALATION, Dose: 0, 30 UG/M3 19 HR/D 5 D/WK FOR 65 WK FOR A TOTAL CADMIUM DOSE OF 0, 180 MG/M3 (STUDY DURATION: 113 WK), Dose: 0, 30 UG/M3 19 HR/D 5 D/WK FOR 65 WK FOR A TOTAL CADMIUM DOSE OF 0, 180 MG/M3 (STUDY DURATION: 113 WK)",inactive; negative
same,carcinogen call,"Species: MOUSE, Strain/Sex: BALB/MALE, Route: SUBCUTANEOUS, Dose: 0, 20 UMOL/KG 1/WK FOR 16 WK (STUDY DURATION: 104 WK), Tumor Site: Type of Lesion: HEMATOPOIETIC SYSTEM: TUMOR",active; positive
same,carcinogen call,"Species: MOUSE, Strain/Sex: BALB/MALE, Route: SUBCUTANEOUS, Dose: 0, 20 UMOL/KG ONCE (STUDY DURATION: 104 WK)",inactive; negative
same,carcinogen call,"Species: MOUSE, Strain/Sex: CD-1/MALE, Route: SUBCUTANEOUS, Dose: 0, 0.03 MMOL/KG BW (5.5 MG/KG BW), SINGLE DOSE, Tumor Site: Type of Lesion: TESTES: INTERSTITIAL CELL TUMOR",active; positive
same,carcinogen call,"Species: MOUSE, Strain/Sex: CD-1/MALE, Route: SUBCUTANEOUS, Dose: 5.5 MG/KG ONCE, Tumor Site: Type of Lesion: TESTES: INTERSTITIAL CELL TUMOR",active; positive
same,carcinogen call,"Species: MOUSE, Strain/Sex: DBA/MALE, Route: SUBCUTANEOUS, Dose: 0, 40 UMOL/KG 1/WK FOR 16 WK (STUDY DURATION: 104 WK), Tumor Site: Type of Lesion: HEMATOPOIETIC SYSTEM: LYMPHOMA",active; positive
same,carcinogen call,"Species: MOUSE, Strain/Sex: DBA/MALE, Route: SUBCUTANEOUS, Dose: 0, 40 UMOL/KG ONCE (STUDY DURATION: 104 WK)",inactive; negative
same,carcinogen call,"Species: MOUSE, Strain/Sex: NFS/MALE, Route: SUBCUTANEOUS, Dose: 0, 40 UMOL/KG 1/WK FOR 16 WK (STUDY DURATION: 104 WK), Tumor Site: Type of Lesion: INJECTION SITE: TUMOR, LIVER: HEPATOCELLULAR ADENOMA OR CARCINOMA",active; positive
same,carcinogen call,"Species: MOUSE, Strain/Sex: NFS/MALE, Route: SUBCUTANEOUS, Dose: 0, 40 UMOL/KG ONCE (STUDY DURATION: 104 WK), Tumor Site: Type of Lesion: LUNG: ADENOMA OR CARCINOMA",active; positive
same,carcinogen call,"Species: MOUSE, Strain/Sex: SWISS/MALE, Route: SUBCUTANEOUS, Dose: 0, 40 UMOL/KG 1/WK FOR 16 WK BEGINNING AT 8 WK OF AGE (STUDY DURATION: 104 WK)",inactive; negative
same,carcinogen call,"Species: MOUSE, Strain/Sex: SWISS/MALE, Route: SUBCUTANEOUS, Dose: 0, 40 UMOL/KG ONCE AT 8 WK OF AGE (STUDY DURATION: 104 WK), Tumor Site: Type of Lesion: ADRENAL GLAND: ADENOMA",active; positive
same,carcinogen call,"Species: RAT, Strain/Sex: CS/MALE, Route: INTRAPROSTATIC, Dose: 0, 0.04 ML OF 0.1 MOLAR SOLUTION (0.73 MG) ONCE (STUDY DURATION: 250 D), Tumor Site: Type of Lesion: PROSTATE: CARCINOMA",active; positive
same,carcinogen call,"Species: RAT, Strain/Sex: F344/MALE, Route: SUBCUTANEOUS, Dose: 0, 3 UMOL/KG BW ONCE, THEN 30 UMOL/KG BW 1X/WK FOR 17 WK BEGINNING 1 WK POST INITIAL DOSE (STUDY DURATION: 18 WK), Tumor Site: Type of Lesion: INJECTION SITE SARCOMA",active; positive
same,carcinogen call,"Species: RAT, Strain/Sex: F344/MALE, Route: SUBCUTANEOUS, Dose: 0, 10, 20, 30 UMOL/KG BW 1X/WK FOR 18 WK (STUDY DURATION: 18 WK), Dose: 0, 10, 20, 30 UMOL/KG BW 1X/WK FOR 18 WK (STUDY DURATION: 18 WK), Tumor Site: Type of Lesion: INJECTION SITE SARCOMA",active; positive
same,carcinogen call,"Species: RAT, Strain/Sex: F344/MALE, Route: SUBCUTANEOUS, Dose: 0, 30 UMOL/KG IN DORSAL THORACIC MIDLINE AREA ONCE (STUDY DURATION: 90 WK), Tumor Site: Type of Lesion: INJECTION SITE: SARCOMA, FIBROSARCOMA",active; positive
same,carcinogen call,"Species: RAT, Strain/Sex: WISTAR/FEMALE, Route: INHALATION, Dose: 0, 30 UG/M3 22 HR/D 7 D/WK FOR 18 MO (STUDY DURATION: 31 MO), Tumor Site: Type of Lesion: LUNG: ALVEOLAR/BRONCHIOLAR ADENOMA, ADENOCARCINOMA",active; positive
same,carcinogen call,"Species: RAT, Strain/Sex: WISTAR/FEMALE, Route: INHALATION, Dose: 0, 30 UG/M3 22 HR/D 7 D/WK FOR 18 MO (STUDY DURATION: 31 MO), Tumor Site: Type of Lesion: LUNG: TUMOR",active; positive
same,carcinogen call,"Species: RAT, Strain/Sex: WISTAR/FEMALE, Route: INHALATION, Dose: 0, 30 UG/M3 AEROSOL 22 HR/D 7 D/WK FOR 18 MO (STUDY DURATION: 31 MO), Tumor Site: Type of Lesion: LUNG: ALVEOLAR/BRONCHIOLAR ADENOMA, SQUAMOUS CELL CARCINOMA",active; positive
same,carcinogen call,"Species: RAT, Strain/Sex: WISTAR/FEMALE, Route: INHALATION, Dose: 0, 90 UG/M3 22 HR/D 7 D/WK FOR 6 MO (STUDY DURATION: 29 MO), Tumor Site: Type of Lesion: LUNG: ADENOCARCINOMA, SQUAMOUS CELL CARCINOMA",active; positive
same,carcinogen call,"Species: RAT, Strain/Sex: WISTAR/FEMALE, Route: INHALATION, Dose: 0, 90 UG/M3 22 HR/D 7 D/WK FOR 6 MO (STUDY DURATION: 29 MO), Tumor Site: Type of Lesion: LUNG: TUMOR",active; positive
same,carcinogen call,"Species: RAT, Strain/Sex: WISTAR/FEMALE, Route: INHALATION, Dose: 0, 90 UG/M3 AEROSOL 22 HR/D 7 D/WK FOR 6 MO (STUDY DURATION: 29 MO), Tumor Site: Type of Lesion: LUNG: ADENOCARCINOMA, SQUAMOUS CELL CARCINOMA",active; positive
same,carcinogen call,"Species: RAT, Strain/Sex: WISTAR/MALE, Route: INHALATION, Dose: 0, 12.5, 25, 50 UG/M3 AEROSOL 23 HR/D 7 D/WK FOR 18 MO (STUDY DURATION: 31 MO), Dose: 0, 12.5, 25, 50 UG/M3 AEROSOL 23 HR/D 7 D/WK FOR 18 MO (STUDY DURATION: 31 MO), Tumor Site: Type of Lesion: LUNG: ADENOMA, ADENOCARCINOMA, EPIDERMOID CARCINOMA",active; positive
same,carcinogen call,"Species: RAT, Strain/Sex: WISTAR/MALE, Route: INHALATION, Dose: 0, 30 MG/M3 AEROSOL 22 HR/D 7 D/WK FOR 18 MO (STUDY DURATION: 30 MO), Tumor Site: Type of Lesion: LUNG: ALVEOLAR/BRONCHIOLAR ADENOMA, ADENOCARCINOMA",active; positive
same,carcinogen call,"Species: RAT, Strain/Sex: WISTAR/MALE, Route: INHALATION, Dose: 0, 30 UG/M3 22 HR/D 7 D/WK FOR 18 MO (STUDY DURATION: 30 MO), Tumor Site: Type of Lesion: LUNG: ALVEOLAR/BRONCHIOLAR ADENOMA, ADENOCARCINOMA",active; positive
same,carcinogen call,"Species: RAT, Strain/Sex: WISTAR/MALE, Route: INHALATION, Dose: 0, 30 UG/M3 22 HR/D 7 D/WK FOR 18 MO (STUDY DURATION: 30 MO), Tumor Site: Type of Lesion: LUNG: TUMOR",active; positive
same,carcinogen call,"Species: RAT, Strain/Sex: WISTAR/MALE, Route: INHALATION, Dose: 0, 90 UG/M3 22 HR/D 7 D/WK FOR 6 MO (STUDY DURATION: 30 MO), Tumor Site: Type of Lesion: LUNG: ALVEOLAR/BRONCHIOLAR ADENOMA, ADENOCARCINOMA, SQUAMOUS CELL CARCINOMA",active; positive
same,carcinogen call,"Species: RAT, Strain/Sex: WISTAR/MALE, Route: INHALATION, Dose: 0, 90 UG/M3 22 HR/D 7 D/WK FOR 6 MO (STUDY DURATION: 30 MO), Tumor Site: Type of Lesion: LUNG: TUMOR",active; positive
same,carcinogen call,"Species: RAT, Strain/Sex: WISTAR/MALE, Route: INHALATION, Dose: 0, 90 UG/M3 AEROSOL 22 HR/D 7 D/WK FOR 6 MO (STUDY DURATION: 30 MO), Tumor Site: Type of Lesion: LUNG: ALVEOLAR/BRONCHIOLAR, ADENOCARCINOMA, SQUAMOUS CELL CARCINOMA",active; positive
same,carcinogen call,"Species: RAT, Strain/Sex: WISTAR/MALE, Route: SUBCUTANEOUS, Dose: 0, 0.03 MMOL/KG BW (5.5 MG/KG BW), SINGLE DOSE, Tumor Site: Type of Lesion: TESTES: INTERSTITIAL CELL TUMOR",active; positive
same,carcinogen call,"Species: RAT, Strain/Sex: WISTAR/MALE, Route: SUBCUTANEOUS, Dose: 0, 3 UMOL/KG BW ONCE, THEN 30 UMOL/KG BW 1X/WK FOR 17 WK BEGINNING 1 WK POST INITIAL DOSE (STUDY DURATION: 18 WK), Tumor Site: Type of Lesion: INJECTION SITE SARCOMA",active; positive
same,carcinogen call,"Species: RAT, Strain/Sex: WISTAR/MALE, Route: SUBCUTANEOUS, Dose: 0, 10, 20, 30 UMOL/KG BW 1X/WK FOR 18 WK (STUDY DURATION: 18 WK), Dose: 0, 10, 20, 30 UMOL/KG BW 1X/WK FOR 18 WK (STUDY DURATION: 18 WK), Tumor Site: Type of Lesion: INJECTION SITE SARCOMA",active; positive
same,carcinogen call,"Species: RAT, Strain/Sex: WISTAR/MALE, Route: SUBCUTANEOUS, Dose: 5.5 MG/KG ONCE, Tumor Site: Type of Lesion: INJECTION SITE: SARCOMA, TESTES: INTERSTITIAL CELL TUMOR",active; positive
same,carcinogen call,"Species: RAT, Strain/Sex: WISTAR, Route: SUBCUTANEOUS, Dose: 0, 0.03 MMOL/KG BW (5.5 MG/KG BW), SINGLE DOSE, OBSERVED 2 YR, Tumor Site: Type of Lesion: INJECTION SITE: SPINDLE CELL SARCOMA, TESTES: INTERSTITIAL CELL TUMOR",active; positive
same,carcinogen call,"Species: RAT, Strain/Sex: WISTAR, Route: SUBCUTANEOUS, Dose: 0, 0.03 MMOL/KG BW (5.5 MG/KG BW), SINGLE DOSE, Tumor Site: Type of Lesion: INJECTION SITE: SARCOMA, TESTES: INTERSTITIAL CELL TUMOR",active; positive
same,carcinogen call,"Species: RAT, Strain/Sex: WISTAR, Route: SUBCUTANEOUS, Dose: 0.02-0.03 MMOL/KG BW (3.7-5.5 MG/KG BW), SINGLE DOSE, Tumor Site: Type of Lesion: INJECTION SITE: FIBROSARCOMA, TESTES: INTERSTITIAL CELL TUMOR",active; positive
